From ChEMBL document CHEMBL1909046, “DrugMatrix in vitro pharmacology data”

Columns and labels:
[1] = biological target: T1, Alpha-1B adrenergic receptor (Rattus norvegicus, UniProt P15823); experiment: DRUGMATRIX: Alpha-1B adrenergic receptor radioligand binding (ligand: prazosin); assay type: cell membranes, Wistar, Liver, Membrane; details: Not Active = under 50% inhibition at 10 µM
T1 sequence (P15823 whole entry): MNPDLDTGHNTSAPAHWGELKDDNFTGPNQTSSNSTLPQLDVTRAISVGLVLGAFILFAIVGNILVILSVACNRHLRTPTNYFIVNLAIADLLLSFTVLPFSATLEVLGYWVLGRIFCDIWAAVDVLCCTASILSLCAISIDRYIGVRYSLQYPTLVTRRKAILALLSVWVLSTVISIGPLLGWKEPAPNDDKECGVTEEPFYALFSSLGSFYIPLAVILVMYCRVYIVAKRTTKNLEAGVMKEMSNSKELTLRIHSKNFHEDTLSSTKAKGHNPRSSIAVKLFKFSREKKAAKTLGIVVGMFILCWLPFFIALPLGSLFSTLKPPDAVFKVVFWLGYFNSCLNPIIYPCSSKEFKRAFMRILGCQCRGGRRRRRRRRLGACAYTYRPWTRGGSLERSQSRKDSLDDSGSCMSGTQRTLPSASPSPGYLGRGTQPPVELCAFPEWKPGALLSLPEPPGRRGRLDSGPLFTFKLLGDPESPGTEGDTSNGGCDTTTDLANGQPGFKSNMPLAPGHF

Thromboxane-A synthase = biological target: T2, Thromboxane-A synthase (Homo sapiens, UniProt P24557); experiment: biochemical; assay type: tissue-based, Platelet; details: platelet;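 also: enzyme inhibition assay with PGH2 supplied as substrate; in other assays of this panel Not Active means under 50% inhibition at 10 µM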
T2 sequence (P24557 whole entry): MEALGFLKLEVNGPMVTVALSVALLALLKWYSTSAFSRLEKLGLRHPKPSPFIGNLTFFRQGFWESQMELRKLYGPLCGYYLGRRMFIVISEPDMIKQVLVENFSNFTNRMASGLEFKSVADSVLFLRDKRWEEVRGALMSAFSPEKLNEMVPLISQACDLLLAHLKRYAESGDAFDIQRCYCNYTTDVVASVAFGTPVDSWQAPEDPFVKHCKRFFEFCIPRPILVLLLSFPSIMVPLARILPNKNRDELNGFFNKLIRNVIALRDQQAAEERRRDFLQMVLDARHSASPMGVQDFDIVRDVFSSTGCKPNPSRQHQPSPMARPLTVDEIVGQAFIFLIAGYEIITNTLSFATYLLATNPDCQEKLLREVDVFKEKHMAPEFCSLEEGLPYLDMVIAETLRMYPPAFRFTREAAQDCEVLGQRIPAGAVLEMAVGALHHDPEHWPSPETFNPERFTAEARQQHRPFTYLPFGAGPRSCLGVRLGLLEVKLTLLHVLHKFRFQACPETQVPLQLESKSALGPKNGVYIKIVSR

D(3) dopamine receptor = D(3) dopamine receptor (Homo sapiens, UniProt P35462); experiment: DRUGMATRIX: Dopamine D3 radioligand binding (ligand: [3H] Spiperone); assay type: cell membranes, CHO, Membrane; details: cho
[2] = biological target: T3, Angiotensin-converting enzyme (Oryctolagus cuniculus, UniProt P12822); assay type: tissue-based, Lung;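 also: enzymatic inhibition of angiotensin-converting enzyme measured with FAPGG as the substrate; in other assays of this panel Not Active means under 50% inhibition at 10 µM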
T3 sequence (P12822 whole entry): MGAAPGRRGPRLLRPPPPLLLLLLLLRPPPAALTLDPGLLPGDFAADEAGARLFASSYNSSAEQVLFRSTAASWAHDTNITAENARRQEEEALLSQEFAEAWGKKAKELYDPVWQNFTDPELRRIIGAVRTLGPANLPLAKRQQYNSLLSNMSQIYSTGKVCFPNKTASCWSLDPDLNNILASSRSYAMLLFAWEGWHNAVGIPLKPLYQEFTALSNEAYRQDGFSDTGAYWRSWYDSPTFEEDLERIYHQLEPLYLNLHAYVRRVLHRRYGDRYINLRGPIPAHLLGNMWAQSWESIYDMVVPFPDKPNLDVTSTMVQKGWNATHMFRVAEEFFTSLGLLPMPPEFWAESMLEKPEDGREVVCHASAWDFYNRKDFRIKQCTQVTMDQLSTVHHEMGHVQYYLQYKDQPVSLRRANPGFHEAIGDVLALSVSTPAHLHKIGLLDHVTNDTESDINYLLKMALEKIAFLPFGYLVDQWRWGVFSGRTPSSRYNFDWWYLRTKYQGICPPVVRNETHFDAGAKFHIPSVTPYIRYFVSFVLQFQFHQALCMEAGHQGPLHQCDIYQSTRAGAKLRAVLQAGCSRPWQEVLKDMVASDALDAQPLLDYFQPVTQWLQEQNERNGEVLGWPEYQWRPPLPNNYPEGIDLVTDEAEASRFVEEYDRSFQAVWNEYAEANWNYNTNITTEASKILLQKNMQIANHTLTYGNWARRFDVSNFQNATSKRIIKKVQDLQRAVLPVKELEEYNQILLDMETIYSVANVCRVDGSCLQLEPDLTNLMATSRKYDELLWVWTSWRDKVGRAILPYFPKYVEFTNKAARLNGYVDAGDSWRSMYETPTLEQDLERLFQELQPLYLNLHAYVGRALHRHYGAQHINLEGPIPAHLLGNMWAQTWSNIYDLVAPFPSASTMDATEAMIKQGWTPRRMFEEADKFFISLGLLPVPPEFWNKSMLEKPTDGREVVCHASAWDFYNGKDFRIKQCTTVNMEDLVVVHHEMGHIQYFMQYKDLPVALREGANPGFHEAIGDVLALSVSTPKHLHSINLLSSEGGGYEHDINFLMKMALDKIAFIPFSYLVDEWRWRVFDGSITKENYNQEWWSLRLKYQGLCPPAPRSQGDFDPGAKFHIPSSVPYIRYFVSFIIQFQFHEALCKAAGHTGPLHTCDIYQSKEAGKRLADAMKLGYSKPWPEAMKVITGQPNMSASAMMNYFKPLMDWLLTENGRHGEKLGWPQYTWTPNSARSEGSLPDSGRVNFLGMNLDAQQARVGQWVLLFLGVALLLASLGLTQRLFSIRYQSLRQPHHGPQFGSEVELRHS

Cytochrome P450 2A6 = biological target: T4, Cytochrome P450 2A6 (Homo sapiens, UniProt P11509); details: bti-tn-5b1-4; also: in other assays of this panel Not Active means under 50% inhibition at 10 µM
T4 sequence (P11509 whole entry): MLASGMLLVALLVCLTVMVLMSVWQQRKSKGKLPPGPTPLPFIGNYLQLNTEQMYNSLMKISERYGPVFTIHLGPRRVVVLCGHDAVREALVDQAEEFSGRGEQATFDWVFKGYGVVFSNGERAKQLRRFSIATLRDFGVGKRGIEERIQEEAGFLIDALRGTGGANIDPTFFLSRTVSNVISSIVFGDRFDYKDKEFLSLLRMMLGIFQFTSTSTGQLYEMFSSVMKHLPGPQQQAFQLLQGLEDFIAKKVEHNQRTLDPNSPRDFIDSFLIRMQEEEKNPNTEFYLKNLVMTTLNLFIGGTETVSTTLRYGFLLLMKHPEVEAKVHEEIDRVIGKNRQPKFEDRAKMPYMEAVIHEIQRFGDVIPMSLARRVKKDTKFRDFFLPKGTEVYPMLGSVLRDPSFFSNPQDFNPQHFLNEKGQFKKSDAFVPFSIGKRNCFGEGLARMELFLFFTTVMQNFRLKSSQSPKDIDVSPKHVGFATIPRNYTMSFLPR

D(3) dopamine receptor, sequence (P35462 whole entry): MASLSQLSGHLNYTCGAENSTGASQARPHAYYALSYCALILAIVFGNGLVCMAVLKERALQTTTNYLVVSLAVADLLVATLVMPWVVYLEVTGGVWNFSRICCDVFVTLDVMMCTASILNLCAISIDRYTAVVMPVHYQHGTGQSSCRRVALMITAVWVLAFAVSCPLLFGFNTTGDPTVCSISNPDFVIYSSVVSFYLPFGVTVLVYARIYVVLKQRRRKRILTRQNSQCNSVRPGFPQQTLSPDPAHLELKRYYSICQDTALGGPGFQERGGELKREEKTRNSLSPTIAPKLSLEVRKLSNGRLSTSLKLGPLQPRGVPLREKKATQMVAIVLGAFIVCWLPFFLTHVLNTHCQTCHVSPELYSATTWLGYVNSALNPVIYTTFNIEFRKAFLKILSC

C#C[C@]1(OC(C)=O)CC[C@H]2[C@@H]3CCC4=CC(=O)CC[C@@H]4[C@H]3CC[C@@]21C [NORETHINDRONE ACETATE]
Not Active: IC50 [1] | IC50 (Thromboxane-A synthase) | IC50 (D(3) dopamine receptor) | IC50 [2] | IC50 (Cytochrome P450 2A6) | Ki (Cytochrome P450 2A6)

COc1ccc2[nH]c([S+]([O-])Cc3ncc(C)c(OC)c3C)nc2c1 (configuration not stated) [OMEPRAZOLE]
Not Active: IC50 [1] | IC50 (Thromboxane-A synthase) | IC50 (D(3) dopamine receptor) | IC50 [2] | IC50 (Cytochrome P450 2A6) | Ki (Cytochrome P450 2A6)

Cc1nccn1CC1CCc2c(c3ccccc3n2C)C1=O (configuration not stated) [ONDANSETRON]
Not Active: IC50 [1] | IC50 (Thromboxane-A synthase) | IC50 (D(3) dopamine receptor) | IC50 [2] | IC50 (Cytochrome P450 2A6) | Ki (Cytochrome P450 2A6)

CCCCOc1ccc(OCCCN2CCOCC2)cc1 [PRAMOXINE]
Not Active: IC50 [1] | IC50 (Thromboxane-A synthase) | IC50 (D(3) dopamine receptor) | IC50 [2] | IC50 (Cytochrome P450 2A6) | Ki (Cytochrome P450 2A6)

O=C(C1CCCCC1)N1CC(=O)N2CCc3ccccc3C2C1 (configuration not stated) [PRAZIQUANTEL]
Not Active: IC50 [1] | IC50 (Thromboxane-A synthase) | IC50 (D(3) dopamine receptor) | IC50 [2] | IC50 (Cytochrome P450 2A6) | Ki (Cytochrome P450 2A6)

CCN(CC)CCOC(=O)c1ccc(N)cc1 [PROCAINE]
Not Active: IC50 [1] | IC50 (Thromboxane-A synthase) | IC50 (D(3) dopamine receptor) | IC50 [2] | IC50 (Cytochrome P450 2A6) | Ki (Cytochrome P450 2A6)

CCCN(CCC)C(=O)C(CCC(=O)O)NC(=O)c1ccccc1 (configuration not stated) [PROGLUMIDE]
Not Active: IC50 [1] | IC50 (Thromboxane-A synthase) | IC50 (D(3) dopamine receptor) | IC50 [2] | IC50 (Cytochrome P450 2A6) | Ki (Cytochrome P450 2A6)

NC(=O)c1cnccn1 [PYRAZINAMIDE]
Not Active: IC50 [1] | IC50 (Thromboxane-A synthase) | IC50 (D(3) dopamine receptor) | IC50 [2] | IC50 (Cytochrome P450 2A6) | Ki (Cytochrome P450 2A6)

OC(CCN1CCCCC1)(c1ccccc1)C1CCCCC1 (configuration not stated) [TRIHEXYPHENIDYL]
Not Active: IC50 [1] | IC50 (Thromboxane-A synthase) | IC50 (D(3) dopamine receptor) | IC50 [2] | IC50 (Cytochrome P450 2A6) | Ki (Cytochrome P450 2A6)

Cc1cc2cc3c(C)cc(=O)oc3c(C)c2o1 [TRIOXSALEN]
Not Active: IC50 [1] | IC50 (Thromboxane-A synthase) | IC50 (D(3) dopamine receptor) | IC50 [2] | IC50 (Cytochrome P450 2A6) | Ki (Cytochrome P450 2A6)

CCCC(CCC)C(=O)O [VALPROIC ACID]
Not Active: IC50 [1] | IC50 (Thromboxane-A synthase) | IC50 (D(3) dopamine receptor) | IC50 [2] | IC50 (Cytochrome P450 2A6) | Ki (Cytochrome P450 2A6)

CCC1=C[C@@H]2CN(C1)Cc1c([nH]c3ccccc13)[C@@](C(=O)OC)(c1cc3c(cc1OC)N(C)[C@H]1[C@@](O)(C(=O)OC)[C@H](OC(C)=O)[C@]4(CC)C=CCN5CC[C@]31[C@@H]54)C2 [VINORELBINE]
Not Active: IC50 [1] | IC50 (Thromboxane-A synthase) | IC50 (D(3) dopamine receptor) | IC50 [2] | IC50 (Cytochrome P450 2A6) | Ki (Cytochrome P450 2A6)

CADMIUM DICHLORIDE
Not Active: IC50 [1] | Ki [1] | IC50 (Thromboxane-A synthase) | Ki (Thromboxane-A synthase) | IC50 (D(3) dopamine receptor) | Ki (D(3) dopamine receptor) | IC50 [2] | Ki [2] | IC50 (Cytochrome P450 2A6) | Ki (Cytochrome P450 2A6)
